Data: patent US20260021138A1, “EXTRACELLULAR VESICLES AND PARTICLES FROM IMMUNE CELLS FOR PROVIDING ANTICANCER ACTIVITY” (LIETUVOS SVEIKATOS MOKSLU UNIVERSITETAS, priority 2022, published 2026)

Key:
HROG-36 GBM 3D spheroids = assay: GBM cell migration area in 3D cell cultures; type: cell-based, human; details: at higher concentrations
Description: For EV internalisation assessment in 2D GBM cell cultures, AF555-labelled EV solutions in PBS were applied to mixed glial and microglial cultures making a final concentration of 50 μg/mL of total EV protein. The cells were visualised by a fluorescent microscope Zeiss Axio Observer.Z1 (Carl Zeiss, Jena, Germany). For 3D GBM cell cultures, U-bottom 96-well plates were coated with a thin layer of 2% agarose prior to cell seeding. The cells were seeded at a density of 10000 per well, and the plate was centrifuged at 280×g for 7 min. […] The spheroid diameter was monitored under a light microscope on each day of culture (FIG. 17). […]
For EV efficiency on GBM cell migration in 3D GBM cell cultures, microscopic images of the cultures were taken at the start and at the end (72 hours), and the area covered by cells was calculated. […] Using the ImageJ software package, the area occupied by migrating spheroid cells was assessed, and the area of the spheroid at the initial time point was subtracted, as indicated in FIG. 24C. Representative images before and after treatment with U-937-derived macrophage and HMC-3 microglial EVs with and without DOX or TMZ and the same amount of free DOX are presented in FIG. 20-23, and quantitative assessment results—in FIG. 24.

[1] = tested on: U-937-derived macrophage cell cultures; assay: Total cell number after poly(I:C) treatment, macrophages; type: cell-based, human; details: 24 hours after the poly(I:C) treatment; data not shown
Description: CELL CULTURES FOR EV PRODUCTION. Human monocytes U-937 (ATCC, CRL1593.2) were maintained in RPMI-1640 medium with GlutaMAX (Thermo Fisher Scientific) supplemented with 10% exosome-free FBS (Thermo Fisher Scientific) and 1000 IU/mL penicillin-streptomycin (Gibco, Thermo Fisher Scientific). U-937 were grown in T150 (30 mL medium) tissue culture flasks at 37° C. (incubator New Brunswick Galaxy 170S, Eppendorf) until the settled cells covered 65-75% of the vial bottom. For induction of cell differentiation, the cell medium was changed to Macrophage-SFM medium (Thermo Fisher Scientific) with 200 nM phorbol myristate acetate (PMA, Merck) and the cells were left for 24 hours in a Soft Flask. After this, the medium was replaced with Macrophage-SFM without PMA and kept in the incubator for 48 hours.
For TLR-3 pathway stimulation, U-937-derived macrophages and HMC-3 cells were treated with 10 μg/mL poly(I:C) for 1 hour (FIG. 1A, C). For induction of large EV shedding, the stimulation time was increased to 8 hours (FIG. 1B, D). After the treatments, the large EVs were collected by a series of centrifugation. First, the media were centrifuged for 10 min at 800×g to remove cells and large cell debri. Then, the supernatant was centrifuged at 14000×g for 30 minutes to spin down large EVs. The EV pellets were resuspended in PBS by pipetting up and down several times. […]

[2] = tested on: human microglial cultures (HMC-3); assay: Total cell number after poly(I:C) treatment, microglia; type: cell-based; details: 24 hours after the poly(I:C) treatment; data not shown

## COc1cccc2c1C(=O)c1c(O)c3c(c(O)c1C2=O)C[C@@](O)(C(=O)CO)C[C@@H]3O[C@H]1C[C@H](N)[C@H](O)[C@H](C)O1 [DOX, doxorubicin]
HROG-36 GBM 3D spheroids
  GBM migration suppression, free drug versus loaded EVs: more efficient

## poly(I:C)
[1]
  Total cell numbers decreased by: 15±2%
[2]
  cell numbers significantly increased by: 22±7%
